This is an account of results in ChEMBL document CHEMBL1128149, “Molecular design of novel PGI2 agonists without PG skeleton. IV” (Bioorg Med Chem Lett, 1995).

As usually defined, the IC50 is the concentration that inhibits the measured activity by half. Read a high IC50 as lower potency.

The species entered for assay [1] is Homo sapiens. The experiment in a line: Compound was tested for its inhibitory activity against 4 uM ADP-induced platelet aggregation of human platelet rich plasma. Type of assay: functional.
Assay [2] addresses Prostacyclin receptor (Homo sapiens, UniProt P43119). Description: Compound was tested for its binding affinity against Prostaglandin I2 receptor using conventional ligand assay by the displacement of [3H]-iloprost from human platelets. Background: Loss of bound radioactivity is the signal in a displacement assay; it reports binding, not function.

Chain of Prostacyclin receptor (P43119 whole entry): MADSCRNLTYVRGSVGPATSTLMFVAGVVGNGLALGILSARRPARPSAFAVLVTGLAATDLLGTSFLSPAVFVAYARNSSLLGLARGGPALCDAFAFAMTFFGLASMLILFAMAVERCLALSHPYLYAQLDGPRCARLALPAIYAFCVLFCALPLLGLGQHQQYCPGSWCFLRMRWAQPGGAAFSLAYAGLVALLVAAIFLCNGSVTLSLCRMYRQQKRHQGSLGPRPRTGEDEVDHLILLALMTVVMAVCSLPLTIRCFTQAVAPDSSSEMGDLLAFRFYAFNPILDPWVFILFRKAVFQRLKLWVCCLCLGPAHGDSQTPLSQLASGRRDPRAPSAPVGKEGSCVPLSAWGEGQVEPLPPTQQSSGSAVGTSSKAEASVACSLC

As to `O=C(O)COc1cccc2c1CCC(CC1C=NC(C(c3ccccc3)c3ccccc3)=N1)C2` (stereo not drawn), the IC50 in assay [1] (Homo sapiens, Plasma) turned out to be 12000 nM.

Turning to `O=C(O)COc1cccc2c1CCC=C2CCn1cc(C(c2ccccc2)c2ccccc2)cn1`, the half-maximal inhibitory concentration (IC50) in assay [1] (Homo sapiens, Plasma) is 8600 nM; in assay [2], 2000 nM.

`O=C(O)COc1cccc2c1CCCC2CCn1cc(C(c2ccccc2)c2ccccc2)cn1` (stereo not drawn): the 50% inhibitory concentration (IC50) is 93 nM in assay [1] (Homo sapiens, Plasma) and 18 nM in assay [2].

On to `O=C(O)COc1cccc2c1CCC(Cn1cc(C(c3ccccc3)c3ccccc3)cn1)C2` (stereo not drawn), for which the 50% inhibitory concentration (IC50) in assay [1] was determined as 530 nM; in assay [2], 40 nM.

In turn, `O=C(O)COc1cccc2c1CCC(Cc1nc(C(c3ccccc3)c3ccccc3)co1)C2` (stereo not drawn) registered an IC50 in assay [1] of 5100 nM.

In assay [1], `O=C(O)COc1cccc2c1CCC(Cc1coc(C(c3ccccc3)c3ccccc3)n1)C2` (stereo not drawn) displayed an IC50 of 1000 nM.

In assay [1] (Homo sapiens, Plasma), `O=C(O)COc1cccc2c1CCC(Cn1cnc(C(c3ccccc3)c3ccccc3)c1)C2` (stereo not drawn) came in with a half-maximal inhibitory concentration (IC50) of 670 nM.

In assay [1], `O=C(O)COc1cccc2c1CCC(CC1=NC(C(c3ccccc3)c3ccccc3)=NC1)C2` (stereo not drawn) registered a half-inhibitory concentration (IC50) of 1000 nM.

`O=C(O)COc1cccc2c1CCC(Cn1cc(C(c3ccccc3)c3ccccc3)cn1)=C2`: the IC50 is 26 nM in assay [1] (Homo sapiens, Plasma) and 8 nM in assay [2].
